Reference: PubChem BioAssay AID2060513 (Molecular Pharmacology Branch, DTP, NCI, 2025)

Test system: 299254-011-R-J1-PDC complex spheroids viability
Test: Anticancer human tumor 299254-011-R-J1-PDC patient-derived melanoma cell line growth inhibition [GQUAD]
Settings: for IC50: curve of first compound; for viability, T/C: stronger effect = lower value
How it was run: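 Tumor cells were grown as complex spheroids with HUVEC endothelial cells and mesenchymal stem cells as stroma. G-quadruplex stabilizers were combined with targeted agents over half-log dilutions from near the clinical Cmax, or from 10 microM.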
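Also: spheroids exposed to the agents for seven days before readout.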
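For viability, T/C in this document: percent viability relative to DMSO vehicle control wells = 100%.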

COc1cccc2c1C(=O)c1c(O)c3c(c(O)c1C2=O)CC(O)(C(=O)CO)CC3OC1CC(N)C(O)C(C)O1 (configuration not stated) + Cc1cnc(CNC(=O)c2c(=O)c3ccc(N4CCCN(C)CC4)nc3n3c2sc2ccccc23)cn1 showed an IC50 (second compound 0.0316 µM) of 4.26 µM, an IC50 (second compound 0.1 µM) of 4.92 µM and an IC50 (second compound 0.316 µM) of 3.64 µM. It also gave an IC50 (second compound 1 µM) of 3.99 µM, an IC50 (second compound 3.16 µM) of 2.38 µM and an IC50 (second compound 10 µM) of 0.0316 µM. The viability, T/C (second compound 0.0316 µM, first compound 0.0316 µM) was 104%, the viability, T/C (second compound 0.0316 µM, first compound 0.1 µM) was 106% and the viability, T/C (second compound 0.0316 µM, first compound 0.316 µM) was 87%. For the same compound, the viability, T/C (second compound 0.0316 µM, first compound 1 µM) was 88.3%, the viability, T/C (second compound 0.0316 µM, first compound 3.16 µM) was 61.3% and the viability, T/C (second compound 0.0316 µM, first compound 10 µM) was 16.9%. The viability, T/C (second compound 0.1 µM, first compound 0.0316 µM) was 110%, the viability, T/C (second compound 0.1 µM, first compound 0.1 µM) was 104% and the viability, T/C (second compound 0.1 µM, first compound 0.316 µM) was 95.2%. For the same compound, the viability, T/C (second compound 0.1 µM, first compound 1 µM) was 88.2%, the viability, T/C (second compound 0.1 µM, first compound 3.16 µM) was 70.5% and the viability, T/C (second compound 0.1 µM, first compound 10 µM) was 20.9%. The viability, T/C (second compound 0.316 µM, first compound 0.0316 µM) was 83.3%, the viability, T/C (second compound 0.316 µM, first compound 0.1 µM) was 95% and the viability, T/C (second compound 0.316 µM, first compound 0.316 µM) was 75.9%. It also gave a viability, T/C (second compound 0.316 µM, first compound 1 µM) of 78.9%, a viability, T/C (second compound 0.316 µM, first compound 3.16 µM) of 54.9% and a viability, T/C (second compound 0.316 µM, first compound 10 µM) of 11.1%. For the same compound, the viability, T/C (second compound 1 µM, first compound 0.0316 µM) was 81.2%, the viability, T/C (second compound 1 µM, first compound 0.1 µM) was 76.3% and the viability, T/C (second compound 1 µM, first compound 0.316 µM) was 86.7%. For the same compound, the viability, T/C (second compound 1 µM, first compound 1 µM) was 76.4%, the viability, T/C (second compound 1 µM, first compound 3.16 µM) was 63% and the viability, T/C (second compound 1 µM, first compound 10 µM) was 0.21%. It also gave a viability, T/C (second compound 3.16 µM, first compound 0.0316 µM) of 84.8%, a viability, T/C (second compound 3.16 µM, first compound 0.1 µM) of 87.7% and a viability, T/C (second compound 3.16 µM, first compound 0.316 µM) of 66.2%. The viability, T/C (second compound 3.16 µM, first compound 1 µM) was 78.2%, the viability, T/C (second compound 3.16 µM, first compound 3.16 µM) was 41.1% and the viability, T/C (second compound 3.16 µM, first compound 10 µM) was 0.21%. The viability, T/C (second compound 10 µM, first compound 0.0316 µM) was 38.2%, the viability, T/C (second compound 10 µM, first compound 0.1 µM) was 19.6% and the viability, T/C (second compound 10 µM, first compound 0.316 µM) was 53.9%. The viability, T/C (second compound 10 µM, first compound 1 µM) was 63.3%, the viability, T/C (second compound 10 µM, first compound 3.16 µM) was 0.39% and the viability, T/C (second compound 10 µM, first compound 10 µM) was 0.28%.
